The values below come from patent US20230172984A1, “CLEARANCE OF SENESCENT CELLS BY ACTIVATION OF iNKT CELLS” (THE REGENTS OF THE UNIVERSITY OF CALIFORNIA, priority 2020, published 2023).

This test has as its system senescent preadipocytes (C12FDG^Hi) in eWAT of HFD mice. The test can be described thus: C12FDG flow cytometry assay (SA-βgal activity) on eWAT SVF of HFD mice. The note with it: HFD-fed mice treated with ABT-737 vs vehicle-treated controls. The test is classed as in vivo, mouse. The procedure:
MATERIALS AND METHODS. Mouse husbandry. All procedures involving mice were performed according to the IACUC standards following ethics approval by the animal committee at the University of California, San Francisco. Male C57BL6/J on chow or HFD fed mice. HFD mice were fed a high-fat diet (60% kcal from fat) from 6 weeks until 22 weeks of age. All experiments on HFD mice were performed at 22-24 weeks total age (16-18 weeks on HFD). Age-matched male C57BL6/J mice on standard rodent chow diet were used as controls. For the lung injury model, 10-week-old male C57BL/6J mice were used. The animals were divided into three groups: the control group, the injured group, and the α-GalCer treated group. The animals in the control group received vehicle only (i.p.) on day 10. The injured group animals received bleomycin (3 U/kg) via the intratracheal route at the start of the experiment (day 0). The animals in the α-GalCer treated groups received bleomycin (3 U/kg) on day 0, and i.p. injection of α-GalCer (2 μg/mouse) on day 10. The animals in all the groups were sacrificed on day 14, and lungs were harvested for isolation of primary pulmonary Alveolar Type II cells (ATII) on the same day. For the hydroxyproline assay, mice were euthanized 21 days after injury.
Epidydmal white adipose tissue stromal vascular fraction (eWAT SVF) isolation. eWAT SVF was isolated using standard protocols. Briefly, mice were euthanized, and epididymal fat pads were harvested, washed twice in D-PBS and minced. eWAT pads were digested with 1 U/ml Collagenase-D (Roche) in 1×HBSS containing 1% BSA (Sigma-Aldrich) for 1 hr at 37° C. Digested fat tissue was then strained twice through 100 μm strainers and neutralized with 30 ml of complete culture media (DMEM-F12 1:1, 10% FBS, 1×Penicillin-streptomycin). Samples were spun at 500 g for 5 minutes, shaken to resuspend the SVF pellet and then spun again. The resulting SVF pellet containing blood cells was lysed with ACKS buffer, washed in D-PBS and spun down. Total live SVF cells were counted using trypan blue and then used for various assays.
C12FDG flow cytometry assay. eWAT SVF cells isolated and counted as described above were adjusted to 3×10^6 cells/ml in complete culture media and incubated with 33 μM C12FDG for 1 hr in a 37° C. water bath. Cells were then spun down at 500 g for 5 minutes, washed with Cell Staining buffer, and stained with anti-CD45-APC (clone 30F-11) and anti-CD31-PE-Cy7 (clone 390) each at a 1:200 dilution on ice for 30 minutes. Cells were then washed in Cell Staining buffer and resuspended in Cell Staining buffer containing 1×7-AAD. Samples were analyzed on an Attune acoustic focusing cytometer. Gates were set as follows: cells (FSC-A/SSC-A), forward scatter singlets (FSC-H/FSC-A), side-scatter singlets (SSC-H/SSC-A), live cells (7-AAD^−), non-immune cells (CD45^−), non-endothelial cells (CD31^−) and analyzed for C12FDG fluorescence. […] Data were analyzed with FlowJo (v. 10). For Lung, 1×10^6 cells from each sample were used to perform the assay. The cells were incubated with 66 μm of C12FDG in sterile DMEM containing DNase for 1 hour at 37° C. Following the incubation, the cells were washed with cell staining buffer, blocked with anti CD16/32 mouse monoclonal antibody (1:1000, prepared by the UCSF monoclonal antibody core), and stained with APC anti-mouse CD45 (1:400), and 7-AAD (1:1000). The gating strategy followed selected 7-AAD^−, CD45^−, and C12FDG^+ cells. […]
(In general: Flow cytometry measures light scatter and fluorescence of single cells or particles in a stream.)

For the molecule `CN(C)CC[C@H](CSc1ccccc1)Nc1ccc(S(=O)(=O)NC(=O)c2ccc(N3CCN(Cc4ccccc4-c4ccc(Cl)cc4)CC3)cc2)cc1[N+](=O)[O-]` [ABT-737], the “number of C12FDG^Hi cells in preadipocyte-enriched SVF population” value (FIG. 2C) was “reduced the number of C12FDG^Hi cells”. Also, for the setting “FIG. 2D”, the “relative number of C12FDG^Lo cells in preadipocyte-enriched SVF population” value is on record as “increased the relative number of C12FDG^Lo cells”.
